Data published in patent EP3046573B1, “AMYLIN ANALOGUES” (Zealand Pharma A/S, priority 2013, dated 2015).
Where two headings read alike, the source gives them in different places. Numbered stars: 1 amine (or outer) side, 2 acyl side, 3 side chain; on linkers, the order of the positions; unused ones are H or OH. Bridge positions count the residues as written; N and C are the ends. Square brackets hold non-standard residues; d marks the D form. Peptide text beside a SMILES is read from it. * marks the point of attachment. C20 diacid = O=C(O)CCCCCCCCCCCCCCCCCCC(=O)*; γGlu = O=C(O)[C@H](CCC(=O)[*:2])N[*:1]; NMeI = CC[C@H](C)[C@H](NC)C(=O)O; hArg = N=C(N)NCCCC[C@H](N)C(=O)O; Sar = CNCC(=O)O

Target: T1, human calcitonin receptor (hCTR2) (Homo sapiens, UniProt P30988)
T1 construct: expressed in transfected cells
T1 sequence (P30988 25-474): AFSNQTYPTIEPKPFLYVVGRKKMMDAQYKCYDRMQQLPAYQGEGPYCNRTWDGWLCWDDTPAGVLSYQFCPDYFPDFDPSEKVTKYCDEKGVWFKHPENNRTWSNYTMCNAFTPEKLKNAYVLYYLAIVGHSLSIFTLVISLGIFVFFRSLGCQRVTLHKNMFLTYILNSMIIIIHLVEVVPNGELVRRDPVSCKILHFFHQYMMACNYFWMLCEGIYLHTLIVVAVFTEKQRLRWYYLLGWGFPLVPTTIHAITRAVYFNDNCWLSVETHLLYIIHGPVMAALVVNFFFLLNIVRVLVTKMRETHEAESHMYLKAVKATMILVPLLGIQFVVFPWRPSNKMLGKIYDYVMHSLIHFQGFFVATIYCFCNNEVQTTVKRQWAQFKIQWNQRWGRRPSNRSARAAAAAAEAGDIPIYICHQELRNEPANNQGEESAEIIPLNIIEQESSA
Assay: hCTR2 assay: induction of cAMP (AlphaScreen cAMP Assay kit) in COS7 cells expressing hCTR2
Type: cell-based
Method in brief: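 Peptide-induced cAMP in hCTR2-expressing COS7 cells, 15 min at 37° C with phosphodiesterase inhibitor IBMX (100 µM), detected by AlphaScreen; potency from 4PL curves.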

## CC[C@H](C)[C@@H](C(=O)N[C@H](CC(C)C)C(=O)N[C@@H](CO)C(=O)N[C@@H](CO)C(=O)N[C@H](C(=O)N[C@@H](CC(N)=O)C(=O)N[C@H](C(=O)NCC(=O)N[C@@H](CO)C(=O)N[C@@H](CC(N)=O)C(=O)N[C@H](C(=O)N1CCC[C@H]1C(N)=O)[C@@H](C)O)C(C)C)[C@@H](C)O)N(C)C(=O)[C@H](C)NC(=O)CN(C)C(=O)[C@H](Cc1ccccc1)NC(=O)[C@H](CC(N)=O)NC(=O)[C@H](CC(N)=O)NC(=O)[C@H](CO)NC(=O)[C@H](CO)NC(=O)[C@H](Cc1c[nH]cn1)NC(=O)[C@H](Cc1c[nH]cn1)NC(=O)[C@H](CC(C)C)NC(=O)[C@H](Cc1ccccc1)NC(=O)[C@H](CCC(=O)O)NC(=O)[C@H](C)NC(=O)[C@H](CC(C)C)NC(=O)[C@H](CCCNC(=N)N)NC(=O)[C@H](CCC(N)=O)NC(=O)[C@@H](NC(=O)[C@H](C)NC(=O)[C@@H]1CSSC[C@H](NC(=O)[C@H](CCCNC(=N)N)NC(=O)CC[C@H](NC(=O)CCCCCCCCCCCCCCCCCCC(=O)O)C(=O)O)C(=O)N[C@@H](CC(N)=O)C(=O)N[C@@H]([C@@H](C)O)C(=O)N[C@@H](C)C(=O)N[C@@H]([C@@H](C)O)C(=O)N1)[C@@H](C)O [Compound 15, [19CD]-isoGlu-RC()NTA TC()ATQRLAEFLHHSSNNF-Gly(Me)-A-Ile(Me)-DLeu-SSTNVGSNTP-NH2] ({C20 diacid-γGlu}-RCNTATCATQRLAEFLHHSSNNF[Sar]A[NMeI][dL]SSTNVGSNTP-NH2; disulfide 2-7)
  EC50: 0.16 nM

## CC[C@H](C)[C@@H](C(=O)N[C@@H](CC(C)C)C(=O)N[C@@H](CO)C(=O)N[C@@H](CO)C(=O)N[C@H](C(=O)N[C@@H](CC(N)=O)C(=O)N[C@H](C(=O)NCC(=O)N[C@@H](CO)C(=O)N[C@@H](CC(N)=O)C(=O)N[C@H](C(=O)N1CCC[C@H]1C(N)=O)[C@@H](C)O)C(C)C)[C@@H](C)O)N(C)C(=O)[C@H](C)NC(=O)CN(C)C(=O)[C@H](Cc1ccccc1)NC(=O)[C@H](CC(N)=O)NC(=O)[C@H](CC(N)=O)NC(=O)[C@H](CO)NC(=O)[C@H](CO)NC(=O)[C@H](Cc1c[nH]cn1)NC(=O)[C@H](Cc1c[nH]cn1)NC(=O)[C@H](CC(C)C)NC(=O)[C@H](Cc1ccccc1)NC(=O)[C@H](CCC(=O)O)NC(=O)[C@@H](C)NC(=O)[C@H](CC(C)C)NC(=O)[C@H](CCCNC(=N)N)NC(=O)[C@H](CCC(N)=O)NC(=O)[C@@H](NC(=O)[C@H](C)NC(=O)[C@@H]1CSSC[C@H](NC(=O)[C@H](CCCNC(=N)N)NC(=O)CC[C@H](NC(=O)CCCCCCCCCCCCCCCCCCC(=O)O)C(=O)O)C(=O)N[C@@H]([C@@H](C)O)C(=O)N[C@@H](C)C(=O)N[C@@H]([C@@H](C)O)C(=O)N1)[C@@H](C)O [Compound 7, [19CD]-isoGlu-RC()TATC()ATQRL-DAla-EFLHHSSNNF-Gly(Me)-A-Ile(Me)-LSSTNVGSNTP-NH2] ({C20 diacid-γGlu}-RCTATCATQRL[dA]EFLHHSSNNF[Sar]A[NMeI]LSSTNVGSNTP-NH2; disulfide 2-6)
  EC50: 1.9 nM

## CC[C@H](C)[C@@H](C(=O)N[C@@H](CC(C)C)C(=O)N[C@@H](CO)C(=O)N[C@@H](CO)C(=O)N[C@H](C(=O)N[C@@H](CC(N)=O)C(=O)N[C@H](C(=O)NCC(=O)N[C@@H](CO)C(=O)N[C@@H](CC(N)=O)C(=O)N[C@H](C(=O)N1CCC[C@H]1C(N)=O)[C@@H](C)O)C(C)C)[C@@H](C)O)N(C)C(=O)[C@H](C)NC(=O)CN(C)C(=O)[C@H](Cc1ccccc1)NC(=O)[C@H](CC(N)=O)NC(=O)[C@H](CC(N)=O)NC(=O)[C@H](CO)NC(=O)[C@H](CO)NC(=O)[C@H](Cc1c[nH]cn1)NC(=O)[C@H](Cc1c[nH]cn1)NC(=O)[C@H](CC(C)C)NC(=O)[C@H](Cc1ccccc1)NC(=O)[C@H](CCC(=O)O)NC(=O)[C@H](C)NC(=O)[C@H](CC(C)C)NC(=O)[C@H](CCCNC(=N)N)NC(=O)[C@H](CCC(N)=O)NC(=O)[C@@H](NC(=O)[C@H](C)NC(=O)[C@@H]1CSSC[C@H](NC(=O)[C@H](CCCCNC(=N)N)NC(=O)CC[C@H](NC(=O)CCCCCCCCCCCCCCCCCCC(=O)O)C(=O)O)C(=O)N[C@@H](CC(N)=O)C(=O)N[C@@H]([C@@H](C)O)C(=O)N[C@@H](C)C(=O)N[C@@H]([C@@H](C)O)C(=O)N1)[C@@H](C)O [Compound 43, [19CD]-isoGlu-HarC()NTATC()ATQRLAEFLHHSSNNF-Gly(Me)-A-Ile(Me)-LSSTNVGSNTP-NH2] ({C20 diacid-γGlu}-[hArg]CNTATCATQRLAEFLHHSSNNF[Sar]A[NMeI]LSSTNVGSNTP-NH2; disulfide 2-7)
  EC50: 0.1 nM

## CC[C@H](C)[C@@H](C(=O)N[C@@H](CC(C)C)C(=O)N[C@@H](CO)C(=O)N[C@@H](CO)C(=O)N[C@H](C(=O)N[C@@H](CC(N)=O)C(=O)N[C@H](C(=O)NCC(=O)N[C@@H](CO)C(=O)N[C@@H](CC(N)=O)C(=O)N[C@H](C(=O)N1CCC[C@H]1C(N)=O)[C@@H](C)O)C(C)C)[C@@H](C)O)N(C)C(=O)[C@H](C)NC(=O)[C@H](C)NC(=O)[C@H](Cc1ccccc1)NC(=O)[C@H](CC(N)=O)NC(=O)[C@H](CC(N)=O)NC(=O)[C@H](CO)NC(=O)[C@H](CO)NC(=O)[C@H](Cc1c[nH]cn1)NC(=O)[C@H](Cc1c[nH]cn1)NC(=O)[C@H](CC(C)C)NC(=O)[C@H](Cc1ccccc1)NC(=O)[C@H](CCC(=O)O)NC(=O)[C@H](C)NC(=O)[C@H](CC(C)C)NC(=O)[C@H](CCCNC(=N)N)NC(=O)[C@H](CCC(N)=O)NC(=O)[C@@H](NC(=O)[C@H](C)NC(=O)[C@@H]1CSSC[C@H](NC(=O)[C@H](CCCNC(=N)N)NC(=O)CC[C@H](NC(=O)CCCCCCCCCCCCCCCCCCC(=O)O)C(=O)O)C(=O)N[C@@H](CC(N)=O)C(=O)N[C@@H]([C@@H](C)O)C(=O)N[C@@H](C)C(=O)N[C@@H]([C@@H](C)O)C(=O)N1)[C@@H](C)O [Compound 16, [19CD]-isoGlu-RC()NTATC()ATQRLAEFLHHSSNNFAA-Ile(Me)-LSSTNVGSNTP-NH2] ({C20 diacid-γGlu}-RCNTATCATQRLAEFLHHSSNNFAA[NMeI]LSSTNVGSNTP-NH2; disulfide 2-7)
cAMP induction in COS7 cells expressing hCTR2, average of a minimum of 3 determinations, read-out: hCTR2 EC50
  EC50: 0.076 nM
